Test results reported in ChEMBL document CHEMBL5696440, “Inhibition of BET recruitment to chromatin as an effective treatment for MLL-fusion leukaemia” (Nature, 2011).

What was measured:
[1] = Cmax in NOD:SCID mouse at 30 mg/kg, ip administered for 24 hrs by LC-MS/MS analysis; assay type: ADME, organism-based; details: in vivo
[2] = AUC (0 to infinity) in NOD:SCID mouse at 30 mg/kg, ip administered for 24 hrs by LC-MS/MS analysis; assay type: ADME, organism-based; details: in vivo
[3] = Half life in NOD:SCID mouse at 30 mg/kg, ip administered for 24 hrs by LC-MS/MS analysis; assay type: ADME, organism-based; details: in vivo
K562 = assay: cells; details: Homo sapiens, K562, 4 h
NOMO-1 = assay: Antiproliferative activity against human NOMO-1 cells harboring MLL-AF9 assessed as inhibition of cell growth incubated for […] by CellTiter-Aqueous One assay; assay type: functional, cell-based; details: NOMO-1, 4 h
[4] = Cmax in NOD:SCID mouse at 30 mg/kg, ip administered for 36 hrs by LC-MS/MS analysis; assay type: ADME, organism-based; details: in vivo
[5] = biological target: Muscarinic acetylcholine receptor M1 (Homo sapiens, UniProt P11229); assay: Inhibition of human M1 by intracellular Ca2+ fluorescence assay; assay type: functional, cell-based
[6] = biological target: Tyrosine-protein kinase Lck (Homo sapiens, UniProt P06239); assay: Inhibition of His6-tagged human LCK at pH 7.4 incubated for 60 mins by Alexa Fluor 488 staining based fluorescence anisotropy analysis
Sequence of Tyrosine-protein kinase Lck (P06239 whole entry): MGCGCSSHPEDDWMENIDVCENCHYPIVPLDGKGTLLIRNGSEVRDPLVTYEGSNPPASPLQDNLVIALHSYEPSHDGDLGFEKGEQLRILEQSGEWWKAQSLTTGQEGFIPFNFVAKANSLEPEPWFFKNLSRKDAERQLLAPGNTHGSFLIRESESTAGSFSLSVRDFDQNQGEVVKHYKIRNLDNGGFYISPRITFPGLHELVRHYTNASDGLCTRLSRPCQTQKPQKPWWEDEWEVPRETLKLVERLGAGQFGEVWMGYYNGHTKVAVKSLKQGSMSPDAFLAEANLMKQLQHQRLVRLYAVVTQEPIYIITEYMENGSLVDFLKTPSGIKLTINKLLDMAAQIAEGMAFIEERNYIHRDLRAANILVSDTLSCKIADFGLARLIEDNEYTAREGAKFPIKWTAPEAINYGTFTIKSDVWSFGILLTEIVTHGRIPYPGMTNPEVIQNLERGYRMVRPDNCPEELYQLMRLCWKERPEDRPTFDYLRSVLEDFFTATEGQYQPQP

[7] = biological target: Kappa-type opioid receptor (Homo sapiens, UniProt P41145); assay: Inhibition of human OPRK1 in presence of GTPgS
Sequence of Kappa-type opioid receptor (P41145 whole entry): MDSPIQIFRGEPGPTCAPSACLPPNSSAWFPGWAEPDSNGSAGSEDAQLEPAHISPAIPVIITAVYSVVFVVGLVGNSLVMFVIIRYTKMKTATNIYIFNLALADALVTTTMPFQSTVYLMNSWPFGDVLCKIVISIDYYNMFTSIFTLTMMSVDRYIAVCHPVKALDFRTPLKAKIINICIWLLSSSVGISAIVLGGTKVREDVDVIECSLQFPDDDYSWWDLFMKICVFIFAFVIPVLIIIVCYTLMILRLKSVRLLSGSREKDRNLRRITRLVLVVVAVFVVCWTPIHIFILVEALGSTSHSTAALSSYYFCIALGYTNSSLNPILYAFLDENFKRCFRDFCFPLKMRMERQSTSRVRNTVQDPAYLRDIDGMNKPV

[8] = biological target: Beta-2 adrenergic receptor (Homo sapiens, UniProt P07550); assay: Inhibition of human beta2 adrenoceptor […] incubated for 1 hr by TR-FRET assay
Sequence of Beta-2 adrenergic receptor (P07550 whole entry): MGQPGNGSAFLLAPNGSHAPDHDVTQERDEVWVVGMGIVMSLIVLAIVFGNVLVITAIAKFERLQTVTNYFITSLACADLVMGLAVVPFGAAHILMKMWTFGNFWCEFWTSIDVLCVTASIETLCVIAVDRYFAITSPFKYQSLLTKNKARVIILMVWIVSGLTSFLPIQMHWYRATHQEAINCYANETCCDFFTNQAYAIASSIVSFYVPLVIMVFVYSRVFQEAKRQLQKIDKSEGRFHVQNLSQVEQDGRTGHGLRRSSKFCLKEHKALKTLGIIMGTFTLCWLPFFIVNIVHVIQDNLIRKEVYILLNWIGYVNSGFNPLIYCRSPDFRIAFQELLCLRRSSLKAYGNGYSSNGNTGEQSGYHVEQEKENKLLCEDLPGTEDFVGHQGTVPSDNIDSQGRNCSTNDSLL

[9] = biological target: Sodium channel protein type 5 subunit alpha (Homo sapiens, UniProt Q14524); assay: Inhibition of human NaV1.5 by blocker ionworks assay
[10] = biological target: 5-hydroxytryptamine receptor 2A (Homo sapiens, UniProt P28223); assay: Inhibition of human 5-HT2A by intracellular Ca2+ luminescence assay; assay type: functional, cell-based
Substance-P receptor = Substance-P receptor (Homo sapiens, UniProt P25103); assay: Inhibition of human NK1 by intracellular Ca2+ luminescence assay; assay type: functional, cell-based
[11] = AUC (0 to infinity) in NOD:SCID mouse at 30 mg/kg, ip administered for 36 hrs by LC-MS/MS analysis; assay type: ADME, organism-based; details: in vivo
[12] = biological target: Nucleoside diphosphate kinase A/B (Homo sapiens, UniProt P15531+P22392); assay: Inhibition of NME1/NME2 (unknown origin) incubated for 1 hr by colloidal coomassie staining based LC-MS/MS analysis; assay type: protein assay
[13] = biological target: Voltage-gated potassium channel, IKs; KCNQ1(Kv7.1)/KCNE1(MinK) (Homo sapiens, UniProt P15382+P51787); assay: Inhibition of human KCNQ1/KCNE1 by blocker ionworks assay; assay type: protein-complex assay
Sequence of Voltage-gated potassium channel, IKs; KCNQ1(Kv7.1)/KCNE1(MinK) (P51787 whole entry): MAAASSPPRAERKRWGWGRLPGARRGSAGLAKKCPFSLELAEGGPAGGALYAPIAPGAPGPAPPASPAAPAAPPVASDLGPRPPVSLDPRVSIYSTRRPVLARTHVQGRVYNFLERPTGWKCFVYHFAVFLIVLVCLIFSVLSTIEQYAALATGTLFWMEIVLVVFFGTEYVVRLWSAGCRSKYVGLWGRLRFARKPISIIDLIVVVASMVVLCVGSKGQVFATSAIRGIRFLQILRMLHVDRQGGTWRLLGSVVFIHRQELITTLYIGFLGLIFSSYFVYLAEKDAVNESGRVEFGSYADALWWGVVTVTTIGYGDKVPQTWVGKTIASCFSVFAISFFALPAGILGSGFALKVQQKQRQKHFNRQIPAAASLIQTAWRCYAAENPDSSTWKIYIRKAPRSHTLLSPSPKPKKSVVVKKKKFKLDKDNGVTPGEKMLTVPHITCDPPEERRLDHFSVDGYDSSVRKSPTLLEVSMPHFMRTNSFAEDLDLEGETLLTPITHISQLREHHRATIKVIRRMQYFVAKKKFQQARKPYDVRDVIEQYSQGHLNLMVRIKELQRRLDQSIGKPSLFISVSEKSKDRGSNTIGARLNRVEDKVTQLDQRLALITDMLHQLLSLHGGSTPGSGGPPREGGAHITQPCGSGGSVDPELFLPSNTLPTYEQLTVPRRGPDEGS

Vasopressin V1a receptor = Vasopressin V1a receptor (Homo sapiens, UniProt P37288); assay: Inhibition of human V1a by intracellular Ca2+ fluorescence assay; assay type: functional, cell-based
Sequence of Vasopressin V1a receptor (P37288 whole entry): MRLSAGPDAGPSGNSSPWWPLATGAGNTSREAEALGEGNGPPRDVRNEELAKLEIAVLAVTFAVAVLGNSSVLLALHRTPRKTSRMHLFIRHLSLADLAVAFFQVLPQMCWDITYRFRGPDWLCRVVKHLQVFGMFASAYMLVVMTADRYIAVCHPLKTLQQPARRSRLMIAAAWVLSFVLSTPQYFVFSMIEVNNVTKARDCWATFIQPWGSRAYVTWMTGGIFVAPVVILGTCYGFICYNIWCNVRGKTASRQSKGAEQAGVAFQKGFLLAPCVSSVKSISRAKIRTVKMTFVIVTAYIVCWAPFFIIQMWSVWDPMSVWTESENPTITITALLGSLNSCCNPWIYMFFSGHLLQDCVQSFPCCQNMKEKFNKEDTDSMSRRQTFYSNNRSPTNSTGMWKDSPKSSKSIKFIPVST

[14] = biological target: Voltage-dependent L-type calcium channel subunit alpha-1C (Homo sapiens, UniProt Q13936); assay: Inhibition of human CaV1.2 by intracellular Ca2+ fluorescence assay; assay type: cell-based
[15] = biological target: 5-hydroxytryptamine receptor 2C (Homo sapiens, UniProt P28335); assay: Inhibition of human 5-HT2C by intracellular Ca2+ luminescence assay; assay type: functional, cell-based
Sequence of 5-hydroxytryptamine receptor 2C (P28335 whole entry): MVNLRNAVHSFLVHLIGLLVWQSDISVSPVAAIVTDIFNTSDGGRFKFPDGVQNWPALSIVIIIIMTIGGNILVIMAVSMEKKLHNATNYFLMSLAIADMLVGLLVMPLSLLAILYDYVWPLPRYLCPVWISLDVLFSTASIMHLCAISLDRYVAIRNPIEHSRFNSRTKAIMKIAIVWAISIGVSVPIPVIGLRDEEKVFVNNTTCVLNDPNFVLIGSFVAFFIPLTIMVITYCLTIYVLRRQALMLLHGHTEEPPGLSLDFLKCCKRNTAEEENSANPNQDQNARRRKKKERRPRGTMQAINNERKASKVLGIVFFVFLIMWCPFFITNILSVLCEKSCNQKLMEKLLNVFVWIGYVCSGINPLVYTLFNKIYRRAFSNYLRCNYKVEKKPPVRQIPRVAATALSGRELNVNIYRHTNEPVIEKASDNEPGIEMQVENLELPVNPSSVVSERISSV

[16] = biological target: Prostaglandin G/H synthase 2 (Homo sapiens, UniProt P35354); assay: Inhibition of human COX-2 by FLINT assay
[17] = biological target: Cyclin-dependent kinase 2 (Homo sapiens, UniProt P24941); assay: Inhibition of CDK2 (unknown origin) incubated for 1 hr by colloidal coomassie staining based LC-MS/MS analysis
Mu-type opioid receptor = Mu-type opioid receptor (Homo sapiens, UniProt P35372); assay: Inhibition of human OPRM1 in presence of GTPgS
Sequence of Mu-type opioid receptor (P35372 whole entry): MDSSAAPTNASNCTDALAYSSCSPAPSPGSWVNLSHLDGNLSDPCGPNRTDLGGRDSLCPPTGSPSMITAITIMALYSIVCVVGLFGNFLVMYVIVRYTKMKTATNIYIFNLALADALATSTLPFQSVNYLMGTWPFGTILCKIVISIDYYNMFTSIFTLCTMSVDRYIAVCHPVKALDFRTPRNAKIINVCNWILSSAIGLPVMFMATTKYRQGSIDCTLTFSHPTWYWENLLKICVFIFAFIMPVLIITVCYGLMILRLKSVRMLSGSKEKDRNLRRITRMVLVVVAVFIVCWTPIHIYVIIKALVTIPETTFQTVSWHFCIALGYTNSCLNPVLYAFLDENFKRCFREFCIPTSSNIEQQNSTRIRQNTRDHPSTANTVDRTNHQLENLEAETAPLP

Histamine H1 receptor = Histamine H1 receptor (Homo sapiens, UniProt P35367); assay: Inhibition of human HRH1 by intracellular Ca2+ luminescence assay; assay type: functional, cell-based
D(1A) dopamine receptor = D(1A) dopamine receptor (Homo sapiens, UniProt P21728); assay: Inhibition of His6-tagged human dopamine 1 receptor […] incubated for 1 hr by TR-FRET assay
[18] = biological target: Glycogen synthase kinase-3 beta (Homo sapiens, UniProt P49841); assay: Inhibition of His6-tagged human GSK3beta at pH 7.4 incubated for 60 mins by Alexa Fluor 488 staining based fluorescence anisotropy analysis
in vivo = details: NOD:SCID, mouse, ip, 30 mg/kg
Aurora kinase B = Aurora kinase B (Homo sapiens, UniProt Q96GD4); assay: Inhibition of His6-tagged human Aurora B kinase at pH 7.4 incubated for 60 mins by Alexa Fluor 488 staining based fluorescence anisotropy analysis
[19] = biological target: Phosphatidylinositol 4,5-bisphosphate 3-kinase catalytic subunit gamma isoform (Homo sapiens, UniProt P48736); assay: Inhibition of His6-tagged human PI3K-gamma […] incubated for 1 hr by TR-FRET assay
[20] = biological target: Sodium-dependent dopamine transporter (Homo sapiens, UniProt Q01959); assay: Inhibition of human DAT by scintillation proximity assay
Sequence of Sodium-dependent dopamine transporter (Q01959 whole entry): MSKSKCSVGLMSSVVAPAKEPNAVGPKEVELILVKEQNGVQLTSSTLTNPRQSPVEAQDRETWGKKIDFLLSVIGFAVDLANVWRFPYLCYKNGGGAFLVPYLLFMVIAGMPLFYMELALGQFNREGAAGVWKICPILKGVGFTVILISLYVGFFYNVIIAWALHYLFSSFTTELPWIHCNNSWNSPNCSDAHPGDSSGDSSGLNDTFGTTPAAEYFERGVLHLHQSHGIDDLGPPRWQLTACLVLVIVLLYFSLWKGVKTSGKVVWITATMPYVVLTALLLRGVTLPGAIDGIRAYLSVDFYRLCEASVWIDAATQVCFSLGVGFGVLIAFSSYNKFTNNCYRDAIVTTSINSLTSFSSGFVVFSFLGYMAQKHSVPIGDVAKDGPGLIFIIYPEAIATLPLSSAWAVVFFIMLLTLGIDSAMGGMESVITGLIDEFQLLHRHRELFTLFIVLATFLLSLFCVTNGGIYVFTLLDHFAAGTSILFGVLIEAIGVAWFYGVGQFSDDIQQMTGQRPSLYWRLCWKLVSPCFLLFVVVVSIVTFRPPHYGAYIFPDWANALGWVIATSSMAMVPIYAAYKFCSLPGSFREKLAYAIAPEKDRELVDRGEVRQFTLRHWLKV

[21] = biological target: Serine/threonine-protein kinase Chk1 (Homo sapiens, UniProt O14757); assay: Inhibition of CHEK1 (unknown origin) incubated for 1 hr by colloidal coomassie staining based LC-MS/MS analysis
Sequence of Serine/threonine-protein kinase Chk1 (O14757 whole entry): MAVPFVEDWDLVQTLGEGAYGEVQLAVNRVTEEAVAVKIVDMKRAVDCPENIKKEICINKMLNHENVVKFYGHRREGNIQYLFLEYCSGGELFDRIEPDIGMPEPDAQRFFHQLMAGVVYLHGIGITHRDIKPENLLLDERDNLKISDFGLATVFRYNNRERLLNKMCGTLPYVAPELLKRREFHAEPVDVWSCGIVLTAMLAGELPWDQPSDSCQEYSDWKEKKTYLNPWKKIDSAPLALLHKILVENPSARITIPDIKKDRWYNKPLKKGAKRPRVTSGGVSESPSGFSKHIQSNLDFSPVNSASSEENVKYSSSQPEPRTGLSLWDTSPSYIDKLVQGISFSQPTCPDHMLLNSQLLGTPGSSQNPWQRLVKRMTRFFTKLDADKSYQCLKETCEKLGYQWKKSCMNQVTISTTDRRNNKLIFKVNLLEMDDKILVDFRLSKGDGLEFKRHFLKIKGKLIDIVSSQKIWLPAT

[22] = biological target: 5-hydroxytryptamine receptor 1B (Homo sapiens, UniProt P28222); assay: Inhibition of human 5-HT1B in presence of GTPgS
[23] = biological target: Acetylcholine receptor subunit alpha (Homo sapiens, UniProt P02708); assay: Inhibition of human alpha 1 nAChR by intracellular Ca2+ fluorescence assay; assay type: cell-based
D(2) dopamine receptor = D(2) dopamine receptor (Homo sapiens, UniProt P14416); assay: Inhibition of human dopamine 2 receptor in presence of GTPgS
MV4-11 = assay: Antiproliferative activity against human MV4-11 cells assessed as inhibition of cell growth incubated for 72 hrs by CellTiter-Glo assay; assay type: functional, cell-based
[24] = biological target: Alpha-1B adrenergic receptor (Homo sapiens, UniProt P35368); assay: Inhibition of human adrenergic alpha 1B by intracellular Ca2+ fluorescence assay; assay type: functional, cell-based
[25] = biological target: 3',5'-cyclic-AMP phosphodiesterase 4B (Homo sapiens, UniProt Q07343); assay: Inhibition of human PDE4B by luminescence assay
[26] = biological target: Muscarinic acetylcholine receptor M2 (Homo sapiens, UniProt P08172); assay: Inhibition of human M2 by intracellular Ca2+ fluorescence assay; assay type: functional, cell-based
Sequence of Muscarinic acetylcholine receptor M2 (P08172 whole entry): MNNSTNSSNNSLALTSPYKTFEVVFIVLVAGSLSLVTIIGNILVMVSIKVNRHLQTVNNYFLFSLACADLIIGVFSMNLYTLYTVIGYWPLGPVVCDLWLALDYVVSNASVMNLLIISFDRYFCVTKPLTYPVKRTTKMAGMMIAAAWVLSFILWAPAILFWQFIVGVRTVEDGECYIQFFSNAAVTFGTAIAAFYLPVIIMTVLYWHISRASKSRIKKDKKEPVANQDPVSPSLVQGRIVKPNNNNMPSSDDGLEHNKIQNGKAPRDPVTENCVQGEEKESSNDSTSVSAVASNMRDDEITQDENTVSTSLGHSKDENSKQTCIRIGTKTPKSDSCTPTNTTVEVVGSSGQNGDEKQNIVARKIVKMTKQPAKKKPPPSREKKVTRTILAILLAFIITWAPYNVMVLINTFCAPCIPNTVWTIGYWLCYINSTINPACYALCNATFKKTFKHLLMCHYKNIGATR

[27] = biological target: Serotonin 3 (5-HT3) receptor; assay: Inhibition of human 5-HT3 by intracellular Ca2+ fluorescence assay; assay type: cell-based
[28] = biological target: Potassium voltage-gated channel subfamily A member 5 (Homo sapiens, UniProt P22460); assay: Inhibition of human Kv1.5 by blocker ionworks assay
[29] = biological target: Solute carrier organic anion transporter family member 1B1 (Homo sapiens, UniProt Q9Y6L6); assay: Inhibition of human OATP1B1 by FLINT imaging analysis

Cc1sc2c(c1C)C(c1ccc(Cl)cc1)=N[C@@H](CC(=O)OC(C)(C)C)c1nnc(C)n1-2
Cmax [1]: 0.84 µM
AUC [2]: 2 µM·h
half-life [3]: 2.3 h

O=C(Nc1c[nH]nc1-c1nc2ccc(CN3CCOCC3)cc2[nH]1)NC1CC1 [AT-9283]
IC50 (K562): 0.26 µM
IC50 (NOMO-1): > 10 µM

CCNC(=O)C[C@@H]1N=C(c2ccc(Cl)cc2)c2cc(OC)ccc2-n2c(C)nnc21 [MOLIBRESIB]
Cmax [4]: 21.9 µM
IC50 [5]: > 15.1 µM
IC50 [6]: > 25 µM
IC50 [7]: > 100 µM
IC50 [8]: > 31.6 µM
IC50 [9]: > 100 µM
IC50 [10]: > 40 µM
IC50 (Substance-P receptor): > 40 µM
AUC [11]: 40.3 µM·h
IC50 [12]: > 10 µM
IC50 [13]: > 25 µM
IC50 (Vasopressin V1a receptor): > 50 µM
IC50 [14]: > 15.8 µM
IC50 [15]: > 40 µM
IC50 [16]: > 100 µM
IC50 [17]: ≥ 10 µM
IC50 (Mu-type opioid receptor): > 100 µM
IC50 (Histamine H1 receptor): > 40 µM
IC50 (D(1A) dopamine receptor): > 31.6 µM
IC50 [18]: > 25 µM
half-life at 36 h (in vivo): 1.6 h
IC50 (Aurora kinase B): > 25 µM
IC50 [19]: > 25 µM
IC50 [20]: 79 µM
IC50 [21]: > 10 µM
IC50 [22]: > 100 µM
IC50 [23]: 15.8 µM
IC50 (D(2) dopamine receptor): > 100 µM
IC50 (MV4-11; Homo sapiens, MV4-11, 72 h): 0.102 µM
IC100 (MV4-11; time 72 hrs): 723 nM
IC50 [24]: > 40 µM
IC50 [25]: > 25 µM
IC50 [26]: > 15.8 µM
IC50 [27]: > 50 µM
IC50 [28]: > 50 µM
IC50 [29]: 12.6 µM
